# Measurements from US20080227801A1, “Pharmaceutical Compositions Containing Erythrina Mulungu Derivatives, Processes for their Production and Uses Thereof” (priority 2005, published 2008).
# Where “and” joins values, the source holds several entries; their conditions need not be identical. Identical values can stand only once. Entries after “also recorded” stand apart in the source; their conditions may differ.
# Tests used:
# Type in all cases: in vivo, Swiss mice
# [1] = system: house mice; assay: Labyrinth in high T (elevated T maze) test; design: key to Escape: latency in seconds (maximum 300 s); settings: for Anxiolytic effect in Labyrinth in high T (in words): 3 and 10 mg/kg, oral via; for Escape / Inhibitory avoidance E1 / Inhibitory avoidance E2 / Inhibitory avoidance E3 / Inhibitory avoidance E4 / Inhibitory avoidance LB (basal latency): acute, mean ± EPM
# Experimental: Swiss mice weighing 25-35 g from the central animal laboratory of the Sao Paulo State University (UNESP/Araraquara) were used.
# Accordingly, lyophilized hydroalcoholic extract (50, 100, 200 and 400 mg/kg) was used, in addition to F2 (3, 6, 10, 17 and 30 mg/kg) and the alkaloids erythrartine, erythravine and 11-OH-erythravine (3 and 10 mg/kg), administered via oral intake by gavage. The standard drug used was Diazepam (DZP) in a dose of 2 mg/kg (via intraperitoneal, i.p).
# The Labyrinth in high T is made with transparent glass walls and wooden floor and consists of a closed arm (30×5×15 cm) perpendicularly linked to two open arms (30×5×0.25 cm), raised at 38.5 cm above the floor by a wooden support. In this test, five consecutive measures of inhibitory avoidance were performed (basal latency, avoidances 1, 2, 3 and 4) and one measure of escape from the open arms, with intervals of 30 seconds between each attempt. In the avoidance measures, the animals were placed in the distal section of the closed arm and the exit latency of this arm, on all four paws, towards the open arm was timed. In the escape measure, the animals were placed in the extremity of the right-hand open arm and the departure time from this arm was measured. The animals' maximum length of stay in the arms of the maze during these measures was 300 seconds. The apparatus was cleaned with ethanol 20% after testing each animal.
# The results obtained from the Labyrinth in high T submitted to a two-way analysis of variance (ANOVA), with treatment being an independent factor and attempts being a dependent factor.
# [2] = system: house mouse; assay: Clear-dark (light/dark) transition model; settings: for Number of transitions between two compartments / Time spent in illuminated compartment: acute, mean ± EPM; for Effect on time spent in illuminated compartment (in words): versus control; for Anxiolytic effect in clear-dark model transition (in words): oral via, doses of 3 and 10 mg/kg
# [3] = system: house mouse; assay: Locomotion activity test in the arena
# Excerpt: In order to avoid false positives or negatives, immediately after testing in the elevated T maze, the animals were submitted to the locomotive activity test in the arena.
# The apparatus consists of a white polypropylene box with a rectangular base (40×48 cm), surrounded by 30 cm high walls. The floor is subdivided into 30 squares (8×8 cm).
# In this test, the animals were placed in the center of the box and their activity was video recorded for five minutes, for subsequent analysis of the number of crossings of the quadrant areas and number of stretch-attend postures (WALSH and CUMMINS, 1976).
# The results obtained with the arena were submitted to a one-way ANOVA followed by the Duncan post hoc test.
# [4] = 3 and 10 mg/kg oral, one-way ANOVA
# [5] = 2 mg/kg i.p., acute, five minutes, mean ± EPM
smiles,measurement,setting,value
"COc1cc2c(cc1OC)[C@]13C[C@@H](OC)C=CC1=CCN3C[C@H]2O [ERIT, erythrartine]",Anxiolytic effect in Labyrinth in high T (in words),[1],anxiolytic effect
same,Number of transitions between two compartments,[2]; 3 mg/kg oral,13.00 ± 1.56
same,Time spent in illuminated compartment,[2]; 3 mg/kg oral,67.67 ± 8.33
same,Number of transitions between two compartments,[2]; 10 mg/kg oral,14.25 ± 1.59
same,Time spent in illuminated compartment,[2]; 10 mg/kg oral,83.42 ± 14.17
same,Effect on number of transitions between two compartments (in words),[2]; [4],did not show signified effect
"COc1cc2c(cc1OC)[C@]13C[C@@H](O)C=CC1=CCN3C[C@H]2O [11-OH, 11-hydroxy-erythravine]",Escape,[1]; 3 mg/kg oral,21.5 ± 3.7
same,Inhibitory avoidance E1,[1]; 3 mg/kg oral,41.8 ± 14.2
same,Inhibitory avoidance E2,[1]; 3 mg/kg oral,96.0 ± 34.4
same,Inhibitory avoidance E3,[1]; 3 mg/kg oral,132.3 ± 39.7
same,Inhibitory avoidance E4,[1]; 3 mg/kg oral,194.4 ± 39.5
same,Inhibitory avoidance LB (basal latency),[1]; 3 mg/kg oral,30.7 ± 5.8
same,Escape,[1]; 10 mg/kg oral,26.8 ± 4.8
same,Inhibitory avoidance E1,[1]; 10 mg/kg oral,30.0 ± 6.1
same,Inhibitory avoidance E2,[1]; 10 mg/kg oral,54.0 ± 21.1
same,Inhibitory avoidance E3,[1]; 10 mg/kg oral,66.6 ± 30.3
same,Inhibitory avoidance E4,[1]; 10 mg/kg oral,94.8 ± 31.7
same,Inhibitory avoidance LB (basal latency),[1]; 10 mg/kg oral,22.6 ± 3.5
same,Anxiolytic effect in Labyrinth in high T (in words),[1],anxiolytic effect
same,Response on the locomotion activity test at the arena (in words),[3]; 3 mg/kg,did not have an increase of the response
same,Number of transitions between two compartments,[2]; 3 mg/kg oral,22.67 ± 2.66
same,Time spent in illuminated compartment,[2]; 3 mg/kg oral,98.67 ± 13.35
same,Number of transitions between two compartments,[2]; 10 mg/kg oral,14.00 ± 1.93
same,Time spent in illuminated compartment,[2]; 10 mg/kg oral,127.22 ± 21.83
same,Effect on number of transitions between two compartments (in words),"[2]; dose of 3 mg/kg, P<0.05, listed as 11-hidroxi-erhytravine, 3 mg/kg",increased the transitions
same,Effect on number of transitions between two compartments (in words),"[2]; dose of 3 mg/kg, P<0.05, listed as 11-hidroxi-erythravine, 3 mg/kg",increased
same,Effect on time spent in illuminated compartment (in words),"[2]; dose of 10 mg/kg, listed as 11-hidroxi-erhytravine, 10 mg/kg",anxiolytic effect
same,Effect on time spent in illuminated compartment (in words),"[2]; dose of 10 mg/kg, listed as 11-hidroxi-erythravine, 10 mg/kg",increased expressively
same,Anxiolytic effect in clear-dark model transition (in words),[2],anxiolytic effect
"COc1cc2c(cc1OC)[C@]13C[C@@H](O)C=CC1=CCN3CC2 [ERI, erythravine]",Anxiolytic effect in Labyrinth in high T (in words),[1],anxiolytic effect
same,Number of transitions between two compartments,[2]; 3 mg/kg oral,19.70 ± 2.96
same,Time spent in illuminated compartment,[2]; 3 mg/kg oral,115.40 ± 18.58
same,Number of transitions between two compartments,[2]; 10 mg/kg oral,19.80 ± 1.32
same,Time spent in illuminated compartment,[2]; 10 mg/kg oral,112.00 ± 10.95
same,Effect on number of transitions between two compartments (in words),[2]; [4],did not show significant differences between groups
same,Effect on time spent in illuminated compartment (in words),[2]; oral doses of 3 mg/kg and 10 mg/kg,expressively greater; also recorded: anxiolytic effect
same,Anxiolytic effect in clear-dark model transition (in words),[2],anxiolytic effect
"CN1C(=O)CN=C(c2ccccc2)c2cc(Cl)ccc21 [DZP, Diazepam, reference compound]",Escape,[1]; 2 mg/kg i.p.,19.0 ± 3.2 and 28.4 ± 7.1 and 27.1 ± 4.6
same,Inhibitory avoidance E1,[1]; 2 mg/kg i.p.,15.3 ± 3.8 and 19.1 ± 4.0 and 11.4 ± 1.4
same,Inhibitory avoidance LB (basal latency),[1]; 2 mg/kg i.p.,24.6 ± 4.1 and 25.4 ± 4.1 and 25.6 ± 5.9
same,Mixings,[3]; [5],167.4 ± 23.6 and 169.11 ± 33.2
same,Raisings,[3]; [5],27.33 ± 2.3 and 21.11 ± 6.7
same,Number of transitions between two compartments,[2]; 2 mg/kg i.p.,20.10 ± 2.93 and 13.92 ± 1.34 and 17.42 ± 2.40
same,Time spent in illuminated compartment,[2]; 2 mg/kg i.p.,144.20 ± 17.52 and 130.00 ± 16.76 and 140.67 ± 18.59
same,Effect on time spent in illuminated compartment (in words),[2]; DZP 2 mg/kg,expressively greater; also recorded: increased expressively; also recorded: observed only for the animals group treated with DZP
